19 molecules from patent publication US11485742B2, “2-azaspiro[3.4]octane derivatives as M4 agonists” (NOVARTIS AG, priority 2019, dated 2022) can be followed below.

pEC50: −log10 of the molar value.

Test [1] concerns the target T1, human cloned CHRM3 receptor (Homo sapiens, UniProt P20309).
T1 construct: expressed in transfected cells; host or cells: CHO-K1 (M3_CHO)
The test can be described thus: CHRM3 Ca++ Flux Assay (M3_CHO cells, agonist mode). The format is cell-based. The note with it: for Emax: Percent Activity (PA) measured to EC100 of Carbachol, read-out: M3 FDSS PA %; for pEC50: agonist mode, geometric mean if tested more than once, read-out: M3 FDSS EC50. The method in brief: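 Agonist-mode calcium mobilisation: compounds, 11 concentrations in triplicate, applied to stable M3_CHO or M5_CHO cells loaded with Ca++ dye, fluorescence followed 3 min. Efficacy expressed against carbachol EC100; EC curves by four-parameter nonlinear regression, geometric mean across independent runs.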

The target in test [2] is T2, human cloned CHRM4 receptor (Homo sapiens, UniProt P08173).
T2 construct: expressed in transfected cells; host or cells: CHO-K1 (M4_CHO)
T2 sequence (P08173 1-479): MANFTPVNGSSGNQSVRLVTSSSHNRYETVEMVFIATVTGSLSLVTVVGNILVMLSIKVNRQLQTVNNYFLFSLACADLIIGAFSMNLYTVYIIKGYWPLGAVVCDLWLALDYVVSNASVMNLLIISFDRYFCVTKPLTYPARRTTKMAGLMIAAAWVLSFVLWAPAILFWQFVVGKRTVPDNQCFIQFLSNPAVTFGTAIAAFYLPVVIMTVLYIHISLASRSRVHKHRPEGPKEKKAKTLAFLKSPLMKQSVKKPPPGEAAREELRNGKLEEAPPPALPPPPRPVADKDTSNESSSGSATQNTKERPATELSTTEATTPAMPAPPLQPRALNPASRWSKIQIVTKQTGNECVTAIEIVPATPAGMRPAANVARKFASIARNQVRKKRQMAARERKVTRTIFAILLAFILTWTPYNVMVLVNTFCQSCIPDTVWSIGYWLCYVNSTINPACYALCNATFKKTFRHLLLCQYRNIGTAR
The test can be described thus: CHRM4 Ca++ Flux Assay (M4_CHO cells, agonist mode). The format is cell-based. Conditions: for Emax: Percent Activity (PA), read-out: M4 FDSS PA %; for pEC50: geometric mean if tested more than once, read-out: M4 FDSS EC50. The method in brief:
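Agonist-mode calcium flux in an M4-expressing CHO-K1 line: compounds were dosed at 11 points in triplicate and fluorescence was tracked for 3 min. Cells were preloaded with Ca++ dye and kept in −Ca/−Mg HBSS with 20 μM ATP for 60 min. Efficacy is scaled to carbachol EC100; EC50s come from four-parameter regression, geometric mean across runs.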

T1 sequence (P20309 whole entry): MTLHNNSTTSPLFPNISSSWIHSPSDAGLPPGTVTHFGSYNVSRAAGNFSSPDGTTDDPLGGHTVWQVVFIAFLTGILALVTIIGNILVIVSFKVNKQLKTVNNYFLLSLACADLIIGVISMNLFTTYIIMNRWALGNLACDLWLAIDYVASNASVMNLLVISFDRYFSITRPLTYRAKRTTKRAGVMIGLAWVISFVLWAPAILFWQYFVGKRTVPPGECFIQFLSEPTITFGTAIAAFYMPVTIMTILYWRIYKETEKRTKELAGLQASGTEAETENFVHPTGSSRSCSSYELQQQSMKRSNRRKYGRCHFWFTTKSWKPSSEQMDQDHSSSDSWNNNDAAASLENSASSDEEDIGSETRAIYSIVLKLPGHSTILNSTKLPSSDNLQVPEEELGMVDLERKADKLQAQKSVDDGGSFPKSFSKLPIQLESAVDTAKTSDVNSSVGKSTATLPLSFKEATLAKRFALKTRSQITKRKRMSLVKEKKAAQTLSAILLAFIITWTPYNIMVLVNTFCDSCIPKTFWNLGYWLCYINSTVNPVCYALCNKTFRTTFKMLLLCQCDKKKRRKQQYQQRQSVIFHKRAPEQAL

In general, pEC50 refers to the negative decadic logarithm of the EC50, by convention in mol/L. With `CC(C)(O)CCOc1cc(F)ccc1C1CCN([C@@H]2COC3(C2)CN(c2nncs2)C3)CC1` [Example 5V, (S)-4-(2-(1-(2-(1,3,4-thiadiazol-2-yl)-5-oxa-2-azaspiro[3.4]octan-7-yl)piperidin-4-yl)-5-fluorophenoxy)-2-methylbutan-2-ol], in test [1], the Emax was found to be 0% and the pEC50 is under 4.60. Besides, in test [2], the Emax came out at 40% and the pEC50 was 6.60.

Consider `c1ccc(C2CCN([C@@H]3COC4(C3)CN(c3nnco3)C4)CC2)c(OC2COC2)c1` [Example 1P, (S)-2-(1,3,4-oxadiazol-2-yl)-7-(4-(2-(oxetan-3-yloxy)phenyl)piperidin-1-yl)-5-oxa-2-azaspiro[3.4]octane], for which the values for the Emax in test [1] and in test [2] were 0% and 94%, respectively. Besides, the results for the pEC50 in test [1] and in test [2] were under 4.60 and 7.55, respectively.

In the case of `CC(C)(O)COc1ccc(F)cc1C1CCN([C@@H]2COC3(C2)CN(c2nnco2)C3)CC1` [Example 1U, (S)-1-(2-(1-(2-(1,3,4-oxadiazol-2-yl)-5-oxa-2-azaspiro[3.4]octan-7-yl)piperidin-4-yl)-4-fluorophenoxy)-2-methylpropan-2-ol], the Emax in test [1] turned out to be 0%; in test [2], 73%. The pEC50 is under 4.60 in test [1] and 7.05 in test [2].

With `Fc1ccc(OC2COC2)c(C2CCN([C@@H]3COC4(C3)CN(c3nnco3)C4)CC2)c1` [Example 1A, (S)-7-(4-(5-fluoro-2-(oxetan-3-yloxy)phenyl)piperidin-1-yl)-2-(1,3,4-oxadiazol-2-yl)-5-oxa-2-azaspiro[3.4]octane], the Emax amounted to 0% in test [1] and 82% in test [2]. Also, the pEC50 in test [1] was under 4.60; in test [2], 8.10.

Consider `CC(C)(O)CCOc1ccc(F)cc1C1CCN([C@@H]2COC3(C2)CN(c2nnco2)C3)CC1` [Example 1N, (S)-4-(2-(1-(2-(1,3,4-oxadiazol-2-yl)-5-oxa-2-azaspiro[3.4]octan-7-yl)piperidin-4-yl)-4-fluorophenoxy)-2-methylbutan-2-ol], for which, in test [1], the Emax was determined as 0% and the pEC50 is under 4.60. For the same molecule, in test [2], the Emax turned out to be 63% and the pEC50 was 6.88.

Consider `Fc1ccc(OC2CC3(COC3)C2)c(C2CCN([C@H]3COC4(C3)CN(c3nnco3)C4)CC2)c1` [Example 7A, (R)-7-(4-(2-((2-oxaspiro[3.3]heptan-6-yl)oxy)-5-fluorophenyl)piperidin-1-yl)-2-(1,3,4-oxadiazol-2-yl)-5-oxa-2-azaspiro[3.4]octane], for which, in test [1], the Emax amounted to 0% and the pEC50 was under 4.60. For the same molecule, in test [2], the Emax is 42% and the pEC50 is 5.85.

As to `CC(C)(O)COc1ccccc1C1CCN([C@@H]2COC3(C2)CN(c2ncns2)C3)CC1` [Example 5Y, (S)-1-(2-(1-(2-(1,2,4-thiadiazol-5-yl)-5-oxa-2-azaspiro[3.4]octan-7-yl)piperidin-4-yl)phenoxy)-2-methylpropan-2-ol], in test [1], the Emax is 0% and the pEC50 is under 4.60. In addition, in test [2], the Emax came out at 64% and the pEC50 is 6.96.

For the molecule `CCC1(COc2ccc(F)cc2C2CCN([C@@H]3COC4(C3)CN(c3nnco3)C4)CC2)COC1` [Example 2P, (S)-7-(4-(2-((3-ethyloxetan-3-yl)methoxy)-5-fluorophenyl)piperidin-1-yl)-2-(1,3,4-oxadiazol-2-yl)-5-oxa-2-azaspiro[3.4]octane], in test [1], the Emax stood at 0% and the pEC50 is under 4.60. Besides, in test [2], the Emax amounted to 75% and the pEC50 was 7.07.

As to `Fc1ccc(OC2COCOC2)c(C2CCN([C@@H]3COC4(C3)CN(c3nnco3)C4)CC2)c1` [Example 1M, (S)-7-(4-(2-((1,3-dioxan-5-yl)oxy)-5-fluorophenyl)piperidin-1-yl)-2-(1,3,4-oxadiazol-2-yl)-5-oxa-2-azaspiro[3.4]octane], the Emax in test [1] amounted to 0%; in test [2], 79%. Further, the pEC50 was under 4.60 in test [1] and 7.03 in test [2].

Turning to `CC1(COc2ccc(F)cc2C2CCN([C@@H]3COC4(C3)CN(c3nnco3)C4)CC2)COC1` [Example 2K, (S)-7-(4-(5-fluoro-2-((3-methyloxetan-3-yl)methoxy)phenyl)piperidin-1-yl)-2-(1,3,4-oxadiazol-2-yl)-5-oxa-2-azaspiro[3.4]octane], in test [1], the Emax came to 0% and the pEC50 was under 4.60. Also, in test [2], the Emax came to 82% and the pEC50 is 7.74.

For `Fc1ccc(OCc2ncccn2)c(C2CCN([C@@H]3COC4(C3)CN(c3nnco3)C4)CC2)c1` [Example 2I, (S)-7-(4-(5-fluoro-2-(pyrimidin-2-ylmethoxy)phenyl)piperidin-1-yl)-2-(1,3,4-oxadiazol-2-yl)-5-oxa-2-azaspiro[3.4]octane], in test [1], the Emax was determined as 0% and the pEC50 was under 4.60. For the same molecule, in test [2], the Emax amounted to 77% and the pEC50 was 7.92.

On to `c1ccc(C2CCN([C@@H]3COC4(C3)CN(c3nnco3)C4)CC2)c(-c2cncnc2)c1` [Example 1W, (S)-2-(1,3,4-oxadiazol-2-yl)-7-(4-(2-(pyrimidin-5-yl)phenyl)piperidin-1-yl)-5-oxa-2-azaspiro[3.4]octane], for which, in test [1], the Emax came to 0% and the negative logarithm of the EC50 (pEC50) was under 4.60. Besides, in test [2], the Emax was determined as 89% and the pEC50 is 7.92.

Regarding `Fc1ccc(OCC2CCOCC2)c(C2CCN([C@@H]3COC4(C3)CN(c3nnco3)C4)CC2)c1` [Example 1J, (S)-7-(4-(5-fluoro-2-((tetrahydro-2H-pyran-4-yl)methoxy)phenyl)piperidin-1-yl)-2-(1,3,4-oxadiazol-2-yl)-5-oxa-2-azaspiro[3.4]octane], in test [1], the Emax was found to be 0% and the pEC50 is under 4.60. Besides, in test [2], the Emax turned out to be 79% and the pEC50 is 7.07.

Turning to `COc1ccc(F)cc1C1CCN([C@@H]2COC3(C2)CN(c2nnco2)C3)CC1` [Example 1V, (S)-7-(4-(5-fluoro-2-methoxyphenyl)piperidin-1-yl)-2-(1,3,4-oxadiazol-2-yl)-5-oxa-2-azaspiro[3.4]octane], in test [1], the Emax was 0% and the pEC50 is under 4.60. In test [2], the Emax came to 83% and the pEC50 is 7.46.

In the case of `COC(C)(C)CCOc1ccc(F)cc1C1CCN([C@@H]2COC3(C2)CN(c2nnco2)C3)CC1` [Example 1K, (S)-7-(4-(5-fluoro-2-(3-methoxy-3-methylbutoxy)phenyl)piperidin-1-yl)-2-(1,3,4-oxadiazol-2-yl)-5-oxa-2-azaspiro[3.4]octane], in test [1], the Emax amounted to 0% and the pEC50 was under 4.60. Moreover, in test [2], the Emax came out at 58% and the pEC50 was 7.01.

Regarding `CC(C)(O)CCOc1cc(F)ccc1C1CCN([C@@H]2COC3(C2)CN(c2nnco2)C3)CC1` [Example 1T, (S)-4-(2-(1-(2-(1,3,4-oxadiazol-2-yl)-5-oxa-2-azaspiro[3.4]octan-7-yl)piperidin-4-yl)-5-fluorophenoxy)-2-methylbutan-2-ol], the Emax in test [1] was 0%; in test [2], 45%. In addition, the pEC50 is under 4.60 in test [1] and 6.80 in test [2].

Take `Fc1ccc(OCC2CC3(COC3)C2)c(C2CCN([C@@H]3COC4(C3)CN(c3nnco3)C4)CC2)c1` [Example 2S, (S)-7-(4-(2-((2-oxaspiro[3.3]heptan-6-yl)methoxy)-5-fluorophenyl)piperidin-1-yl)-2-(1,3,4-oxadiazol-2-yl)-5-oxa-2-azaspiro[3.4]octane]: in test [1], the Emax came to 0% and the pEC50 was under 4.60. Further, in test [2], the Emax is 68% and the negative-log EC50 (pEC50) was 6.62.

In the case of `c1ccc(C2CCN([C@@H]3COC4(C3)CN(c3nnco3)C4)CC2)c(-c2ncco2)c1` [Example 1X, (S)-2-(1,3,4-oxadiazol-2-yl)-7-(4-(2-(oxazol-2-yl)phenyl)piperidin-1-yl)-5-oxa-2-azaspiro[3.4]octane], in test [1], the Emax stood at 0% and the pEC50 was under 4.60. Further, in test [2], the Emax amounted to 84% and the pEC50 was 6.95.

Turning to `Fc1ccc(OC2CC3(COC3)C2)c(C2CCN([C@@H]3COC4(C3)CN(c3nncs3)C4)CC2)c1` [Example 5W, (S)-7-(4-(2-((2-oxaspiro[3.3]heptan-6-yl)oxy)-5-fluorophenyl)piperidin-1-yl)-2-(1,3,4-thiadiazol-2-yl)-5-oxa-2-azaspiro[3.4]octane], in test [1], the Emax was 0% and the negative-log EC50 (pEC50) was under 4.60. In test [2], the Emax turned out to be 85% and the pEC50 is 6.98.
